pIC50: −log10 of the molar value.
System: human monocytic cell line U937
Assay: Human U937 cellular necroptosis assay
Type: cell-based
Settings: U-937; U937 cells stimulated with 25 ng/mL human TNFalpha and 25 μM z-VAD-FMK; 22 hr; viability by Cell Titer-Glo 2.0; read-out: hU937 IC50
In short: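 U937 cells (5000/well) driven to necroptosis by 25 ng/mL human TNFalpha plus 25 μM z-VAD-FMK alongside 1:3-diluted compounds, 22 hr at 37° C, 5% CO2. Viability by CellTiter-Glo luminescence; IC50 from four-parameter logistic fit.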

| SMILES | pIC50 |
| --- | --- |
| CN1C(=O)[C@@H](NC(=O)c2ncc(Cl)c(-c3cc(F)ccc3F)n2)COc2cc(F)cnc21 [Example 74, (S)-5-chloro-4-(2,5-difluorophenyl)-N-(8-fluoro-5-methyl-4-oxo-2,3,4,5-tetrahydropyrido[3,2-b]-[1,4]oxazepin-3-yl)pyrimidine-2-carboxamide] | 7.96 |
| Cc1cnc(C(=O)N[C@H]2COc3cc(Cl)cnc3N(C)C2=O)nc1-c1ccc(F)cn1 [Example 121, (S)-N-(8-chloro-5-methyl-4-oxo-2,3,4,5-tetrahydro-pyrido[3,2-b][1,4]oxazepin-3-yl)-4-(5-fluoropyridin-2-yl)-5-methylpyrimidine-2-carboxamide] | 7.52 |
| CN1C(=O)[C@@H](NC(=O)c2ncc(Cl)c(-c3cc(F)ccc3F)n2)COc2cc(CN3CCn4ncnc4C3)ccc21 [Example 155, (S)-5-chloro-4-(2,5-difluorophenyl)-N-(8-((5,6-dihydro-[1,2,4]triazolo[1,5-a]pyrazin-7(8H)-yl)methyl)-5-methyl-4-oxo-2,3,4,5-tetrahydrobenzo[b]-[1,4]oxazepin-3-yl)pyrimidine-2-carboxamide] | 7.61 |
| CN1C(=O)[C@@H](NC(=O)c2ncc(Cl)c(-c3ccccc3Cl)n2)COc2cc(Cl)cnc21 [Example 101, (S)-5-chloro-N-(8-chloro-5-methyl-4-oxo-2,3,4,5-tetrahydropyrido[3,2-b]-[1,4]oxazepin-3-yl)-4-(2-chlorophenyl)pyrimidine-2-carboxamide] | 7.83 |
| Cc1ccc(C(=O)N[C@H]2COc3cc(C#N)ccc3N(C)C2=O)nc1-c1ccc(F)cc1 [Example 36, (S)-N-(8-cyano-5-methyl-4-oxo-2,3,4,5-tetrahydro-benzo[b][1,4]oxazepin-3-yl)-6-(4-fluorophenyl)-5-methyl-picolinamide] | 6.58 |
| Cc1ccc(-c2nc(C(=O)N[C@H]3COc4ccc(CN5CCn6ncnc6C5)cc4N(C)C3=O)ncc2Cl)cc1F [Example 153, (S)-5-chloro-N-(7-((5,6-dihydro-[1,2,4]triazolo[1,5-a]pyrazin-7(8H)-yl)methyl)-5-methyl-4-oxo-2,3,4,5-tetrahydrobenzo[b]-[1,4]oxazepin-3-yl)-4-(3-fluoro-4-methylphenyl)pyrimidine-2-carboxamide] | 8.00 |
| Cc1cnc(C(=O)N[C@H]2CCc3ccccc3NC2=O)nc1-c1ccc(F)cc1 [Example 9, (S)-4-(4-fluorophenyl)-5-methyl-N-(2-oxo-2,3,4,5-tetrahydro-1H-benzo[b]azepin-3-yl)pyrimidine-2-carboxamide] | 7.99 |
| Cc1cnc(C(=O)N[C@H]2COc3cc(C#N)ccc3N(C)C2=O)nc1N1CCN(C)CC1 [Example 31, (S)-N-(8-cyano-5-methyl-4-oxo-2,3,4,5-tetrahydro-benzo[b][1,4]oxazepin-3-yl)-5-methyl-4-(4-methylpiperazin-1-yl)pyrimidine-2-carboxamide] | ≤ 5.00 |
| CN1C(=O)[C@@H](NC(=O)c2ncc(Cl)c(-c3ccccc3)n2)COc2cc(C#N)ccc21 [Example 24, (S)-5-chloro-N-(8-cyano-5-methyl-4-oxo-2,3,4,5-tetrahydro-benzo[b][1,4]oxazepin-3-yl)-4-phenylpyrimidine-2-carboxamide] | 7.72 |
| Cc1cnc(C(=O)N[C@H]2COc3cc(C#N)ccc3N(C)C2=O)nc1-c1ccccc1F [Example 42, (S)-N-(8-cyano-5-methyl-4-oxo-2,3,4,5-tetrahydro-benzo[b][1,4]oxazepin-3-yl)-4-(2-fluorophenyl)-5-methylpyrimidine-2-carboxamide] | 7.71 |
| COc1cc2c(cn1)N(C)C(=O)[C@@H](NC(=O)c1ncc(C)c(-c3ccccc3)n1)CC2 (stereo in doubt) [Example 11, N-(7-methoxy-1-methyl-2-oxo-2,3,4,5-tetrahydro-1H-pyrido[3,4-b]azepin-3-yl)-5-methyl-4-phenylpyrimidine-2-carboxamide] | 6.34 |
| CN1C(=O)[C@@H](NC(=O)c2ncc(Cl)c(-c3cnccn3)n2)COc2cc(Cl)cnc21 [Example 112, (S)-5-chloro-N-(8-chloro-5-methyl-4-oxo-2,3,4,5-tetrahydropyrido[3,2-b]-[1,4]oxazepin-3-yl)-4-(pyrazin-2-yl)pyrimidine-2-carboxamide] | 7.03 |
| Cc1cnc(C(=O)N[C@H]2CCc3ccccc3NC2=O)nc1-c1ccc(F)c(F)c1 [Example 10, (S)-4-(3,4-difluorophenyl)-5-methyl-N-(2-oxo-2,3,4,5-tetrahydro-1H-benzo[b]azepin-3-yl)pyrimidine-2-carboxamide] | 7.81 |
| CN1C(=O)[C@@H](NC(=O)c2ncc(Cl)c(-c3ccccc3)n2)COc2cc(Cl)cnc21 [Example 93, (S)-5-chloro-N-(8-chloro-5-methyl-4-oxo-2,3,4,5-tetrahydropyrido[3,2-b]-[1,4]oxazepin-3-yl)-4-phenylpyrimidine-2-carboxamide] | 8.21 |
| CN1C(=O)[C@@H](NC(=O)c2ncc(Cl)c(-c3cccc(C#N)c3)n2)COc2cc(F)cnc21 [Example 84, (S)-5-chloro-4-(3-cyanophenyl)-N-(8-fluoro-5-methyl-4-oxo-2,3,4,5-tetrahydropyrido[3,2-b]-[1,4]oxazepin-3-yl)pyrimidine-2-carboxamide] | 7.48 |
| Cc1cnc(C(=O)N[C@H]2COc3cc(C#N)ccc3N(C)C2=O)nc1N1CCC(F)(F)C1 [Example 23, (S)-N-(8-cyano-5-methyl-4-oxo-2,3,4,5-tetrahydro-benzo[b][1,4]oxazepin-3-yl)-4-(3,3-difluoropyrrolidin-1-yl)-5-methylpyrimidine-2-carboxamide] | 6.08 |
| Cc1cc(F)ccc1-c1nc(C(=O)N[C@H]2COc3cc(Cl)cnc3N(C)C2=O)ncc1F [Example 92, (S)-N-(8-chloro-5-methyl-4-oxo-2,3,4,5-tetrahydro-pyrido[3,2-b][1,4]oxazepin-3-yl)-5-fluoro-4-(4-fluoro-2-methylphenyl)pyrimidine-2-carboxamide] | 7.82 |
| COCCOc1ccc2c(c1)N(C)C(=O)[C@@H](NC(=O)c1ncc(Cl)c(-c3ccc(F)cc3F)n1)CO2 [Example 146, (S)-5-chloro-4-(2,4-difluorophenyl)-N-(7-(2-methoxyethoxy)-5-methyl-4-oxo-2,3,4,5-tetrahydrobenzo[b]-[1,4]oxazepin-3-yl)pyrimidine-2-carboxamide] | 7.71 |
| Cc1ccc(-c2nc(C(=O)N[C@H]3COc4cccnc4N(C)C3=O)ncc2Cl)c(F)c1 [Example 53, (S)-5-chloro-4-(2-fluoro-4-methylphenyl)-N-(5-methyl-4-oxo-2,3,4,5-tetrahydro-pyrido[3,2-b][1,4]oxazepin-3-yl)pyrimidine-2-carboxamide] | 7.93 |
| Cc1ccc(C(=O)Nc2cccc(Cl)c2F)nc1Br [Example 25, 6-bromo-N-(3-chloro-2-fluorophenyl)-5-methyl-picolinamide] | ≤ 5.00 |
| Cc1ccc(C(=O)N[C@H]2COc3cc(C#N)ccc3N(C)C2=O)nc1-c1cc(F)ccc1F [Example 41, (S)-N-(8-cyano-5-methyl-4-oxo-2,3,4,5-tetrahydro-benzo[b][1,4]oxazepin-3-yl)-6-(2,5-difluorophenyl)-5-methylpicolinamide] | 6.23 |
| Cc1ccc(-c2nc(C(=O)N[C@H]3COc4ccc(N5CC6(CCOCC6)C5)cc4N(C)C3=O)ncc2Cl)cc1F [Example 145, (S)-5-chloro-4-(3-fluoro-4-methylphenyl)-N-(5-methyl-4-oxo-7-(7-oxa-2-azaspiro[3.5]nonan-2-yl)-2,3,4,5-tetrahydrobenzo[b]-[1,4]oxazepin-3-yl)pyrimidine-2-carboxamide] | 7.96 |
| C[C@H]1Oc2cccnc2N(C)C(=O)[C@H]1NC(=O)c1ncc(Cl)c(-c2ccc(F)cc2F)n1 [Example 55, 5-chloro-4-(2,4-difluorophenyl)-N-((2R,3S)-2,5-dimethyl-4-oxo-2,3,4,5-tetrahydropyrido[3,2-b]-[1,4]oxazepin-3-yl)pyrimidine-2-carboxamide] | 7.46 |
| Cc1ccc(-c2nc(C(=O)N[C@H]3CCc4ccccc4NC3=O)ncc2C)cc1 [Example 13, (S)-5-methyl-N-(2-oxo-2,3,4,5-tetrahydro-1H-benzo[b]azepin-3-yl)-4-(p-tolyl)pyrimidine-2-carboxamide] | 7.56 |
| CN1C(=O)[C@@H](NC(=O)c2ncc(Cl)c(-c3ccc(F)cc3F)n2)COc2cc(C#N)ccc21 [Example 138, (S)-5-chloro-N-(8-cyano-5-methyl-4-oxo-2,3,4,5-tetrahydrobenzo[b]-[1,4]oxazepin-3-yl)-4-(2,4-difluorophenyl)pyrimidine-2-carboxamide] | 7.79 |
| CN1C(=O)[C@@H](NC(=O)c2ccc(Cl)c(-c3ccc(F)cc3)n2)COc2cc(C#N)ccc21 [Example 37, (S)-5-chloro-N-(8-cyano-5-methyl-4-oxo-2,3,4,5-tetrahydro-benzo[b][1,4]oxazepin-3-yl)-6-(4-fluorophenyl)picolinamide] | 5.81 |
| CN1C(=O)[C@@H](NC(=O)c2ncc(Cl)c(-c3ccc(F)c(F)c3)n2)COc2cc(Cl)cnc21 [Example 97, (S)-5-chloro-N-(8-chloro-5-methyl-4-oxo-2,3,4,5-tetrahydropyrido[3,2-b]-[1,4]oxazepin-3-yl)-4-(3,4-difluorophenyl)pyrimidine-2-carboxamide] | 7.96 |
| Cc1cnc(C(=O)N[C@H]2COc3cc(Cl)cnc3N(C)C2=O)nc1-c1cc(C(F)(F)F)cs1 [Example 157, (S)-N-(8-chloro-5-methyl-4-oxo-2,3,4,5-tetrahydro-pyrido[3,2-b][1,4]oxazepin-3-yl)-5-methyl-4-(4-(trifluoromethyl)thiophen-2-yl)-pyrimidine-2-carboxamide] | 6.37 |
| CN1C(=O)[C@@H](NC(=O)c2ncc(Cl)c(-c3cc(F)ccc3F)n2)COc2ccc(N3CC4(CCOCC4)C3)cc21 [Example 144, (S)-5-chloro-4-(2,5-difluorophenyl)-N-(5-methyl-4-oxo-7-(7-oxa-2-azaspiro[3.5]nonan-2-yl)-2,3,4,5-tetrahydrobenzo[b]-[1,4]oxazepin-3-yl)pyrimidine-2-carboxamide] | 7.80 |

Reference: patent US12565490B2, “Inhibitors of Receptor Interacting Protein Kinase I for the treatment of disease” (Board of Regents, The University of Texas System, priority 2020, dated 2026)
